Measured values from patent US8841413B2, “Antidiabetic compounds” (Cadila Healthcare Limited, priority 2006, dated 2014).

Legend:
C57BL/6J mice = test: Acute single dose 120-min time-course experiment, in vivo glucose reduction in C57BL/6J mice; parameters: unit not given here; settings: male C57BL/6J mice, Mean ± SEM
Protocol: All the animal experiments were carried out according to the internationally valid guidelines following approval by the ‘Zydus Research Center animal ethical committee’. […] Two days prior to the study, the animals were randomised and divided into 5 groups (n=6), based upon their fed glucose levels. On the day of experiment, food was withdrawn from all the cages, water was given ad-libitum and were kept for overnight fasting. Vehicle (normal saline)/test/standard compounds were administered intraperitoneally (i.p.) or orally, on a body weight basis. […] Blood samples were centrifuged and the separated serum was immediately subjected for the glucose estimation. Serum for insulin estimation was stored at −70° C. until used for the insulin estimation. The glucose estimation was carried out with DPEC-GOD/POD method (Ranbaxy Fine Chemicals Limited, Diagnostic division, India), using Spectramax-190, in 96-microwell plate reader (Molecular devices Corporation, Sunnyvale, Calif.). […] The AUC and BCAUC obtained from graphs were analyzed for one way ANOVA, followed by Dunnett's post test, using Graph Pad prism software. Furthermore, the insulin estimation was carried out using rat/mouse insulin ELISA kit (Linco research, Mo. USA).

db/db mice = test: In vivo glucose reduction in db/db mice; settings: oral (p.o) administration, FIG. 10
Protocol: Acute single dose 120-min time-course experiments were carried out in male C57BL/6J or db/db mice, age 8-12 weeks, bred in-house. Animals were housed in groups of 6 animals per cage, for a week, in order to habituate them to vivarium conditions (25±4° C., 60-65% relative humidity, 12:12 h light:dark cycle, with lights on at 7.30 am). All the animal experiments were carried out according to the internationally valid guidelines following approval by the ‘Zydus Research Center animal ethical committee’. […] Two days prior to the study, the animals were randomised and divided into 5 groups (n=6), based upon their fed glucose levels. On the day of experiment, food was withdrawn from all the cages, water was given ad-libitum and were kept for overnight fasting. Vehicle (normal saline)/test/standard compounds were administered intraperitoneally (i.p.) or orally, on a body weight basis. […] The glucose estimation was carried out with DPEC-GOD/POD method (Ranbaxy Fine Chemicals Limited, Diagnostic division, India), using Spectramax-190, in 96-microwell plate reader (Molecular devices Corporation, Sunnyvale, Calif.). […] The AUC and BCAUC obtained from graphs were analyzed for one way ANOVA, followed by Dunnett's post test, using Graph Pad prism software. […]

[1] = test system: RIN5F (Rat Insulinoma) cells; test: In vitro glucose-dependent insulin secretion (RIN5F cell assay); format: cell-based; settings: 16.7 mM glucose load, mean ± S.D., n = 3
human glucagon receptor = molecular target: T1, human glucagon receptor (Homo sapiens, UniProt P47871); test: In vitro human glucagon antagonist activity (inhibition of cAMP production), CHO/human glucagon R cells; format: cell-based
T1 construct: The full-length cDNA was cloned in pcDNA3.1(Invitrogen); expressed in transfected cells
T1 sequence (P47871 26-477): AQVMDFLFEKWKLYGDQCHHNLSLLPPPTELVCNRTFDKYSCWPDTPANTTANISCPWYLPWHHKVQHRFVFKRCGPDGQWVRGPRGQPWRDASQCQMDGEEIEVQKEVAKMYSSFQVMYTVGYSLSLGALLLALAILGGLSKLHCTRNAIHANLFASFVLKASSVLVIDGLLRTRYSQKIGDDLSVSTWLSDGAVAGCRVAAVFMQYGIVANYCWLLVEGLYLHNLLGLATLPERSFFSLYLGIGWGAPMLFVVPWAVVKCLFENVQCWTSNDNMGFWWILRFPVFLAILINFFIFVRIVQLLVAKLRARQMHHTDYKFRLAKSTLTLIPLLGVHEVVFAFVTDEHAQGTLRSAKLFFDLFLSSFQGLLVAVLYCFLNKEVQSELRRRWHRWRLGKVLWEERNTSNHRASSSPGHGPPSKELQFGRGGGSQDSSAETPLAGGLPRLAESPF

DPP IV = DPP IV (Homo sapiens, UniProt P27487); test: Stability against DPP IV enzyme; format: in vitro ADME; settings: for % degradation in 24 h when incubated with DPP-IV enzyme: 2 μM, 37° C.; for half-life at 2 μM: DPP IV enzyme, pH 7.8, 37° C., read-out: half-life (t1/2) with DPP-IV enzyme
DPP IV, sequence (P27487 whole entry, species assumed): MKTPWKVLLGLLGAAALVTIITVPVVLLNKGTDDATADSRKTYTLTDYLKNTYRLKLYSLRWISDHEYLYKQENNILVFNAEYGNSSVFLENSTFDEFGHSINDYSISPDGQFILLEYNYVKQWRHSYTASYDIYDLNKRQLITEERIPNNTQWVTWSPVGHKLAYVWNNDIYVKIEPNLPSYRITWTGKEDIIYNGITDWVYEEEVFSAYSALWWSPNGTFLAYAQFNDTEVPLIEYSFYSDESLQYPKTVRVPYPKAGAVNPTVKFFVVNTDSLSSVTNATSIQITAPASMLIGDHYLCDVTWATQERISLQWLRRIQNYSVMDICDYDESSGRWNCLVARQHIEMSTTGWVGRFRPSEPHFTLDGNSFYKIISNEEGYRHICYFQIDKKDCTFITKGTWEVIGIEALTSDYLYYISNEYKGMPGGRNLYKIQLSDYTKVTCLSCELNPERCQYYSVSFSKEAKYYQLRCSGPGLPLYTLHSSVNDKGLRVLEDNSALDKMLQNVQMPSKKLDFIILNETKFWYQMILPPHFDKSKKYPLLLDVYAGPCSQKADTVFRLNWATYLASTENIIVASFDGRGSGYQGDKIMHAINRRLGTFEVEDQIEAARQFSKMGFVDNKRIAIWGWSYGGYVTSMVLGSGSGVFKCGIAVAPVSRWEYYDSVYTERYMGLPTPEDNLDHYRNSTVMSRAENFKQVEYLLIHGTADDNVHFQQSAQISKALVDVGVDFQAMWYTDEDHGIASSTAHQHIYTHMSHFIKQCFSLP
Method in brief: (§1)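 UV detection at 206 nm tracked the remaining material after HPLC separation at a flow of 1 mL/min in TFA/H2O. Incubations had been ended by adding aqueous TFA (10%, v/v), and eluted peaks were identified by ESI-MS.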

[2] = Stability in human plasma; format: in vitro ADME; settings: for % degradation in 24 h when incubated with human plasma: 2 μM, 37° C.; for half-life at 2 μM: human, pooled human plasma, pH 7.8, 37° C., read-out: half-life (t1/2) in human plasma
Method in brief: as §1

[3] = Stability in simulated gastric fluid; format: in vitro ADME; settings: 2 μM, 37° C., pH 1.5, pepsin
Method in brief: as §1

[4] = Stability in simulated intestinal fluid; format: in vitro ADME; settings: 2 μM, 37° C., pH 7.5
Method in brief: as §1

[5] = Stability against liver microsomes; format: in vitro ADME, human; settings: for % degradation in 24 h when incubated with liver microsomes: 2 μM, 37° C.; for half-life at 2 μM: human, human liver microsomes, pH 7.8, 37° C., read-out: half-life (t1/2) with liver microsomes
Method in brief: as §1

[6] = 1 nM test compound (fourth concentration column, between 100 nM and 10 μM) with saturated concentration of glucagon peptide
[7] = 1 nM test compound with saturated concentration of glucagon peptide
[8] = 10 nM test compound with saturated concentration of glucagon peptide
[9] = 100 nM test compound with saturated concentration of glucagon peptide
[10] = 10 μM test compound with saturated concentration of glucagon peptide

SMILES: CCc1cc(OC)ccc1-c1ccc(CC(NC(=O)[C@H](CC(=O)O)NC(=O)[C@H](CO)NC(=O)[C@@H](NC(=O)C(C)(Cc2ccccc2F)NC(=O)[C@@H](NC(=O)CNC(=O)[C@H](CCC(N)=O)NC(=O)C(C)(C)NC(=O)[C@@H](N)Cc2c[nH]cn2)[C@@H](C)O)[C@@H](C)O)C(=O)NC(Cc2ccc(-c3ccccc3C(F)(F)F)cc2)C(N)=O)cc1 (single isomer, unassigned) [Seq. ID. No. 32, H-Aib-QGT-(α-Me-2F-Phe)-TSD-Bip(OMe)-Bip(2CF3)]
- blood glucose level (C57BL/6J mice; 10 nM/kg, i.p, 0 min): 182 ± 2.3
- blood glucose level (C57BL/6J mice; 10 nM/kg, i.p, 30 min): 110 ± 2.3
- blood glucose level (C57BL/6J mice; 10 nM/kg, i.p, 60 min): 112 ± 3.0
- blood glucose level (C57BL/6J mice; 10 nM/kg, i.p, 120 min): 112 ± 1.9
- blood glucose level (C57BL/6J mice; 2 μM/kg, oral, 0 min): 181 ± 2.5
- blood glucose level (C57BL/6J mice; 2 μM/kg, oral, 30 min): 117 ± 3.3
- blood glucose level (C57BL/6J mice; 2 μM/kg, oral, 60 min): 112 ± 4.0
- blood glucose level (C57BL/6J mice; 2 μM/kg, oral, 120 min): 108 ± 2.9
- in vivo glucose reduction (in words) (db/db mice): glucose reduction

SMILES: CCc1cc(OC)ccc1-c1ccc(CC(NC(=O)[C@H](CC(=O)O)NC(=O)[C@H](CO)NC(=O)[C@@H](NC(=O)C(C)(Cc2ccccc2F)NC(=O)[C@@H](NC(=O)CNC(=O)[C@H](CCC(N)=O)NC(=O)[C@H](C)NC(=O)[C@@H](N)Cc2c[nH]cn2)[C@@H](C)O)[C@@H](C)O)C(=O)NC(Cc2ccc(-c3ccccc3F)cc2)C(N)=O)cc1 (single isomer, unassigned) [compound 27]
- Insulin secretion ([1]; 0.1 nM test compd.): 12.6 ± 0.25 pg/µg/h
- Insulin secretion ([1]; 1 nM test compd.): 15.3 ± 0.31 pg/µg/h
- Insulin secretion ([1]; 10 nM test compd.): 29.7 ± 0.48 pg/µg/h
- Human Glucagon receptor antagonistic activity, inhibition of cAMP production of Glucagon peptide (human glucagon receptor; [6]): 3 ± 0.12 pmol/ml/μg prt
- Human Glucagon receptor antagonistic activity, inhibition of cAMP production of Glucagon peptide (human glucagon receptor; [7]): 14 ± 0.02 pmol/ml/μg prt
- Human Glucagon receptor antagonistic activity, inhibition of cAMP production of Glucagon peptide (human glucagon receptor; [8]): 11 ± 0.03 pmol/ml/μg prt
- Human Glucagon receptor antagonistic activity, inhibition of cAMP production of Glucagon peptide (human glucagon receptor; [9]): 7 ± 0.22 pmol/ml/μg prt
- Human Glucagon receptor antagonistic activity, inhibition of cAMP production of Glucagon peptide (human glucagon receptor; [10]): 0 pmol/ml/μg prt
- % degradation in 24 h when incubated with DPP-IV enzyme (DPP IV): 86%
- half-life at 2 μM (DPP IV): 9 h
- % degradation in 24 h when incubated with human plasma [2]: 70%
- half-life at 2 μM [2]: 8 h
- % degradation in 24 h when incubated with simulated gastric fluid [3]: 15%
- half-life (t1/2) in simulated gastric fluid [3]: (8) h
- % degradation in 24 h when incubated with simulated intestinal fluid [4]: 41%
- half-life (t1/2) in simulated intestinal fluid [4]: (6) h
- % degradation in 24 h when incubated with liver microsomes [5]: 77%
- half-life at 2 μM [5]: 1 h

SMILES: CCc1cc(OC)ccc1-c1ccc(CC(NC(=O)[C@H](CC(=O)O)NC(=O)[C@H](CO)NC(=O)[C@@H](NC(=O)C(C)(Cc2ccccc2F)NC(=O)[C@@H](NC(=O)CNC(=O)[C@H](CCC(N)=O)NC(=O)[C@H](C)NC(=O)[C@@H](N)Cc2c[nH]cn2)[C@@H](C)O)[C@@H](C)O)C(=O)NC(Cc2ccc(-c3ccccc3C(F)(F)F)cc2)C(N)=O)cc1 (single isomer, unassigned) [compound 28]
- Insulin secretion ([1]; 0.1 nM test compd.): 12.0 ± 0.14 pg/µg/h
- Insulin secretion ([1]; 1 nM test compd.): 14.3 ± 0.12 pg/µg/h
- Insulin secretion ([1]; 10 nM test compd.): 27.8 ± 0.32 pg/µg/h
- Human Glucagon receptor antagonistic activity, inhibition of cAMP production of Glucagon peptide (human glucagon receptor; [6]): 0 pmol/ml/μg prt
- Human Glucagon receptor antagonistic activity, inhibition of cAMP production of Glucagon peptide (human glucagon receptor; [7]): 4 ± 0.06 pmol/ml/μg prt
- Human Glucagon receptor antagonistic activity, inhibition of cAMP production of Glucagon peptide (human glucagon receptor; [8]): 3 ± 0.11 pmol/ml/μg prt
- Human Glucagon receptor antagonistic activity, inhibition of cAMP production of Glucagon peptide (human glucagon receptor; [9]): 0 pmol/ml/μg prt
- Human Glucagon receptor antagonistic activity, inhibition of cAMP production of Glucagon peptide (human glucagon receptor; [10]): 0 pmol/ml/μg prt
- % degradation in 24 h when incubated with DPP-IV enzyme (DPP IV): 72%
- half-life at 2 μM (DPP IV): 9 h
- % degradation in 24 h when incubated with human plasma [2]: 70%
- half-life at 2 μM [2]: 8 h
- % degradation in 24 h when incubated with simulated gastric fluid [3]: 12%
- half-life (t1/2) in simulated gastric fluid [3]: (8) h
- % degradation in 24 h when incubated with simulated intestinal fluid [4]: 42%
- half-life (t1/2) in simulated intestinal fluid [4]: (6) h
- % degradation in 24 h when incubated with liver microsomes [5]: 78%
- half-life at 2 μM [5]: 1 h
